# In patent publication US20100130579A1, “CANCER THERAPY” (Georgetown University, priority 2006, published 2010):
# What was measured:
# cyclin D1 = assay: Immunofluorescence staining of cyclin D1 localization; assay type: cell-based, human; details: PC3 cells, 2 μg/ml, 2 days
# Experimental: FIGS. 3A-3C. Mahanine down-regulates cyclin D1 protein in prostate cancer cells. FIG. 3A and FIG. 3B: Western blots showing cyclin D1 protein levels in PC3 (A) and LNCaP (B) cells treated with 0, 1, 2 and 3 μg/ml mahanine for 3 days. Protein lysates (50 μg) from PC3 and LNCaP cells were resolved on 12% SDS-PAGE, and immunoblots were probed with antibodies to cyclin D1. All immunoblots were re-probed with β-actin antibodies to ensure equal loading. Representative photographs from an experiment that was repeated thrice. Quantitative analyses of relative levels of cyclin D1 proteins are shown on the right panels. […] FIG. 3C: PC3 cells were plated on chamber slides and treated with or without 2 μg/ml mahanine for 2 days. Cells were then fixed in methanol, incubated with cyclin D1 antibody overnight, Alexi Fluor-conjugated secondary antibodies for 1 hour and counter stained with propidium iodide (PI). Slides were then mounted and examined using a fluorescence microscope. Photographs were taken at the same magnification (×20) and then transported to Photoshop. Representative photographs from an experiment that was repeated twice.
# Immunofluorescence staining: PC3 cells were plated onto chamber slides and treated with vehicle or mahanine (2 μg/ml) for 2 days. The cells were fixed in methanol, air-dried, and re-hydrated with PBS. […]
# LNCaP and PC3 cells [1] = details: androgen-responsive LNCaP and androgen-independent PC3 cells; cited from earlier work
# Akt = details: prostate cancer cells; cited from earlier work
# LNCaP and PC3 cells [2] = details: 3 μg/ml; cited from earlier work
# LNCaP cells = assay: Flow cytometric cell cycle analysis, LNCaP; assay type: cell-based, human; details: mahanine 3 days
# Experimental: FIG. 4A-4B. Mahanine arrests prostate cancer cells at G0/G1 phase of cell cycle. To determine if down-regulation of cyclin D1 by mahanine treatments affect cell cycle, PC3 4(A) and LNCaP 4(B) cells were treated with 0, 1 and 2 μg/ml mahanine for 3 days. After treatment, flow cytometric analyses were performed. The percentage of cells in the G0/G1, S and G2/M-phase of the cell cycle were shown on right. FACS analysis of PC3 and LNCaP prostate cancer cells with vehicle or 2 μg/ml mahanine are shown in the left panel. Values are the mean from two independent experiments in duplicates.
# Since cyclin D1 regulates cell cycle progression at the G0/G1 phase, Aplicants examined the cell cycle profile of PC3 and LNCaP cells in the presence of various concentrations of mahanine.
# RASSF1 gene = assay: Gene array (microarray) analysis of RASSF1 expression; assay type: cell-based, human; details: PC3 cells, 2 μg/ml mahanine, 2 days, compared to vehicle-treated control
# Experimental: FIGS. 1A-1D. Mahanine induces RASSF1A in prostate and other cancer cells. FIG. 1A: Microarray analyses of PC3 cells treated with ([…] (+) or vehicle (−) for 2 days, RNA was extracted and microarray analysis was performed. FIG. 1B: RT-PCR data showing the expression of RASSF1A and GAPDH in untreated normal prostate epithelial cells (PrEC) and human prostate cancer cells (PC3). FIG. 1C: PC3 (left panel) and LNCaP (right panel) cells were treated with 0, 1, 2 and 3 μg/ml mahanine for 3 days. RNA was extracted, and RT-PCR assays were performed to detect RASSF1A and GAPDH expression. Representative photograph from an experiment that was repeated thrice. Quantitative estimations of relative levels of RASSF1A mRNAs (lower panels) were determined by densitometric measurements of RT-PCR gels from three independent experiments after normalization with GAPDH. […]
# Microarray analysis: Total RNA was isolated from […] cells treated with or without mahanine using TRIZOL reagent (Invitrogen Corp., Carlsbad, Calif.). […] RNA was evaluated by electrophoresis before continuing with probe synthesis and hybridization. […] Following repetitive washing in saline-sodium citrate/SDS, hybridized cDNA probes were detected by chemiluminescence. […] Bound biotinylated cDNA probe was detected with alkaline phosphatase-conjugated streptavidin and CDP-Star chemiluminescent substrate (SuperArray). […]
smiles,measurement,setting,value
CC(C)=CCC[C@@]1(C)C=Cc2c(c(C)cc3c2[nH]c2cc(O)ccc23)O1 [mahanine],nuclear localization of cyclin D1,cyclin D1,reduced and/or prevented the nuclear localization
same,growth of prostate cancer cells,LNCaP and PC3 cells [1],inhibits growth in a dose-dependent manner
same,Akt activation state,Akt,deactivated Akt
same,apoptosis,LNCaP and PC3 cells [2],induces apoptosis
same,cells in S-phase,LNCaP cells; decreased from 25.6% (control),6.1%
same,cells in G0/G1 phase,LNCaP cells; increased from 63.7% (control),90.7%
same,RASSF1 gene expression (gene array),RASSF1 gene,dramatically induced
